pIC50: −log10 of the molar value. Values after ≈ are worked out from the molar mass of the structure shown.
Tests used:
[1] = tested on: UEA-1 binding sites on Caco-2 cell membrane preparations; test: Single tier competition assay: inhibition of biotinylated UEA-1 binding, compound and biotinylated UEA-1 incubated together; parameters: species or system human; details: for Single Tier Assay IC50 / pIC50: library MSI 27; for pIC50: read-out: Single Tier Assay IC50
Experimental: (§1) The epithelial cell binding ability of compounds and mixtures obtained from synthetic combinatorial libraries was determined by competition assays. These assays were set up to measure the inhibition of binding of biotinylated UEA-1 to membrane preparations of the epithelial cell line Caco-2 (colon carcinoma cells-2), by compounds and mixtures of the combinatorial libraries. This cell line is a conventional model for epithelial cells.
(§2) Two competition inhibition assays were used in this case, namely single tier and two tier assays. These assays differed from each other in that in the single tier assay, the mixtures/compounds and the biotinylated UEA-1 were incubated together with the Caco-2 cell membrane preparations, while in case of the two-tier assay, the mixture/compounds were allowed to incubate alone with the cell membranes in the absence of biotinylated UEA-1, which was added in the next step. Addition of the extra step in the two-tier assay was to ensure that the compounds inhibiting the binding of biotinylated UEA-1 to the Caco-2 cell membranes were doing so by themselves binding to surface receptors on the Caco-2 cells and not to the biotinylated UEA-1. Each assay will be described in detail.
(§3) • 1. Confluent Caco-2 cell monolayers (grown in 75 cm^2 flasks for up to 1 week at 37° C. and 5% CO2) were washed twice in Dulbecco's PBS (DPBS). • 2. Cell monolayers were treated with 10 mM EDTA-DPBS for 5–10 min at 37° C. and cells were harvested by centrifugation at 1000 rpm for 5 min. • 3. Cells were washed 3 times in DPBS. • 4. […] The cells were homogenised for 30 sec. • 6. The homogenates were centrifuged in hard walled tubes at 40,000 rpm for 45 min at 4° C. • 7. […] The supernatant was removed and stored on ice. The procedure was repeated adding the second supernatant to the first. • 8. The protein concentration was determined using e.g. a Bio-Rad protein assay. • 9. All fractions were stored at −80° C. prior to use. Single Tier Assays: • 1. 96-well microtiter plates were coated with membrane preparations of Caco-2 cells either by allowing them to incubate on the plates for 2½ hours at room temperature or by incubating them overnight at 4° C. 100 μl of 10 μg/ml (in 0.05 M carbonate buffer, pH 9.6) of membrane preparation was added to each well. • 2. The plates were flicked out, patted dry and blocked with bovine serum albumin (BSA)/DPBS (200 μl/well) for 1 to 4 hours at room temperature after which they were washed three times in water. • 3. […] Control wells were also set up in which the Caco-2 cell membrane preparations were incubated with unconjugated UEA-1. […] Following overnight incubation the plates were washed thoroughly (3–6 times). The plates were flicked out, patted dry and biotinylated UEA-1 was detected with commercial Streptavidin conjugated to horseradish peroxidase (HRP) (CalBiochem). […] The plates were left to incubate for an hour at room temperature. • 6. The plates were then washed 3–6 times and the biotin-streptavidin binding was detected by adding an HRP substrate OPD (orthophenyl diamine) to each well. 100 μl/well of this substrate at a final concentration of 1.6 mg/ml was added to each well. Before adding to the wells, this substrate was activated by addition of 50 μl of 3% H2O2 per plate and the reaction was allowed to develop in the dark. • 7. The reaction was stopped by adding 50 μl of 4 N H2SO4 to each well after approximately 5–10 minutes or when sufficient colour had developed. The OD490 (absorbance at 490 nm) of each well was measured using a conventional 96 well plate reading spectrophotometer. Two Tier Assays: • 1. 96 well plates were coated with Caco-2 cell membrane preparations in the same manner as described in the single tier assay. • 2. […] 100 μl at these final concentrations were added to each well. • 4. The plates were then left to incubate overnight, a step that would allow the mixtures and compounds to interact with the Caco-2 cell membranes without the presence of the competitor (biotinylated UEA-1) itself. • 5. […]

[2] = tested on: UEA-1 binding sites on Caco-2 cell membrane preparations; test: Two tier competition assay: compound incubated alone with membranes, biotinylated UEA-1 added in next step; parameters: species or system human; details: for Two Tier Assay IC50 / pIC50: library MSI 27; for pIC50: read-out: Two Tier Assay IC50; for Avg % Inhib: Two Tier Assay, library TP1012
Experimental: as §1, §2, §3

pIC50 [1] | Two Tier Assay IC50 [2] | pIC50 [2] | SMILES | Avg % Inhib ([2]; 50 μg/ml) | Avg % Inhib ([2]; 250 μg/ml) | further results
3.44 | 86.81 µg/mL | 3.55 | CC(=O)NC(CCCCNC(=O)c1ccc(O)cc1)C(N)=O (stereo not drawn) [Cpd 15] | – | – | Single Tier Assay IC50 [1]: 111.40 µg/mL
3.11 | 108.30 µg/mL | 3.48 | CC(=O)NC(CCCCNC(=O)c1cc(O)cc(O)c1)C(N)=O (stereo not drawn) [Cpd 16] | – | – | –
3.89 | 95.95 µg/mL | 4.07 | COc1cc(C(=O)NCCCCC(NC(=O)c2cc(OC)c(O)c(OC)c2)C(=O)NCCCCC(NC(=O)C(CCCCNC(=O)c2cc(OC)c(O)c(OC)c2)NC(=O)c2cc(OC)c(O)c(OC)c2)C(N)=O)cc(OC)c1O (stereo not drawn) [Cpd 17] | – | – | Single Tier Assay IC50 [1]: 145.80 µg/mL
3.73 | – | 3.73 | CCOc1cc(C(=O)NCCCCC(NC(=O)c2cc(OCC)c(OCC)c(OCC)c2)C(=O)NCCCCC(NC(=O)C(CCCCNC(=O)c2cc(OCC)c(OCC)c(OCC)c2)NC(=O)c2cc(OCC)c(OCC)c(OCC)c2)C(N)=O)cc(OCC)c1OCC (stereo not drawn) [Cpd 19] | – | – | –
3.58 | – | 3.58 | NC(=O)C(CCCCNC(=O)C(CCCCNC(=O)c1cc(O)cc(O)c1)NC(=O)c1cc(O)cc(O)c1)NC(=O)C(CCCCNC(=O)c1cc(O)cc(O)c1)NC(=O)c1cc(O)cc(O)c1 (stereo not drawn) [Cpd 24] | – | – | –
3.59 | – | 3.59 | CCOc1cc(C(=O)NCCCCC(NC(=O)C(CCCCNC(=O)c2cc(OCC)c(OCC)c(OCC)c2)NC(=O)c2cc(OCC)c(OCC)c(OCC)c2)C(N)=O)cc(OCC)c1OCC (stereo not drawn) [Cpd 27] | – | – | –
– | – | – | CCCCC(CNC)N(C)CC(CC1CCCCC1)NC(=O)c1cc(O)c(O)c(O)c1 (stereo not drawn) [compound 86] | 61.61% | 76.23% | –
– | – | – | CCCC[C@H](CNC)N(C)C[C@H](CC1CCCCC1)NC(=O)c1cc(O)c(O)c(O)c1 [compound 90] | 53.66% | 69.94% | –
– | – | – | CCCC[C@@H](CNC)N(C)C[C@@H](CC1CCCCC1)NC(=O)c1cc(O)c(O)c(O)c1 [compound 92] | 54.8899% | 67.7% | –
– | – | – | CCCC[C@@H](CNC)N(C)C[C@H](CC1CCCCC1)NC(=O)c1cc(O)c(O)c(O)c1 [compound 96] | 42.93% | 65.78% | –
– | – | – | CNC[C@H](CC(C)C)N(C)C[C@H](Cc1ccccc1)NC(=O)c1cc(O)c(O)c(O)c1 [compound 125] | 61.02% | 77.78% | –
– | – | – | CNC[C@H](Cc1ccc(F)cc1)N(C)C[C@H](Cc1ccc(F)cc1)NC(=O)Cc1ccc(Cl)c(Cl)c1 [compound 141] | 41.43% | 72.64% | –
– | – | – | CNC[C@H](Cc1ccc(F)cc1)N(C)C[C@H](Cc1ccc(F)cc1)NC(=O)Cc1cccc(C(F)(F)F)c1 [compound 144] | 42.26% | 66.71% | –

SMILES | pIC50 [1] | Two Tier Assay IC50 [2] | pIC50 [2] | Avg % Inhib ([2]; 50 μg/ml) | Avg % Inhib ([2]; 250 μg/ml) | further results
COc1ccc(C(=O)NCCCCC(NC(=O)c2ccc(OC)c(OC)c2)C(=O)NCCCCC(NC(=O)C(CCCCNC(=O)c2ccc(OC)c(OC)c2)NC(=O)c2ccc(OC)c(OC)c2)C(N)=O)cc1OC (stereo not drawn) [Cpd 18] | 3.98 | 90.21 µg/mL | 4.07 | – | – | Single Tier Assay IC50 [1]: 111.30 µg/mL
NC(=O)C(CCCCNC(=O)C(CCCCNC(=O)c1cc(O)c(O)c(O)c1)NC(=O)c1cc(O)c(O)c(O)c1)NC(=O)C(CCCCNC(=O)c1cc(O)c(O)c(O)c1)NC(=O)c1cc(O)c(O)c(O)c1 (stereo not drawn) [Cpd 22] | 4.76 | 2.86 µg/mL | 5.55 | – | – | IC 50 (ug/ml) 1st tier ([1]; Table 8, galloyl constructs): 10 µg/mL (≈ 9.9 µM); IC50 ([1]; Table 8, galloyl constructs, read-out: IC 50 (uM) 1st tier (converted)): 10 µM; Single Tier Assay IC50 [1]: 17.61 µg/mL; IC 50 (ug/ml) 2nd tier ([2]; Table 8, galloyl constructs): 1 µg/mL (≈ 0.99 µM); IC50 ([2]; Table 8, galloyl constructs, read-out: IC 50 (uM) 2nd tier): 1 µM
COc1cc(C(=O)NCCCCC(NC(=O)C(CCCCNC(=O)c2cc(OC)c(OC)c(OC)c2)NC(=O)c2cc(OC)c(OC)c(OC)c2)C(N)=O)cc(OC)c1OC (stereo not drawn) [Cpd 28] | 3.53 | – | 3.53 | – | – | –

Reference: US7166296B2, “Pharmaceutical formulations and ligands for use therein; mimetics for UEA-1” (Sarlan, Ltd., priority 2001, dated 2007)
